Test results published in the supplement of paper PMC11368000.

What was measured:
Settings in all cases: exposure time: 90 min
1309 [1] = donor line of iPSC-derived cardiomyocytes; assay: POD (EC95) for loss of peak frequency (asystole) vs vehicle; higher = less potent (higher point of departure)
Method: (§1)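 Human iPSC-derived cardiomyocytes from 16 donors were exposed for 90 min at 37 °C to each PFAS at 0.1, 1, 10 and 100 µM in 0.5% DMSO, 384-well plates. Kinetic Ca2+ flux (FLIPR) and Hoechst nuclei counts were normalised to vehicle wells and fitted with a hierarchical Bayesian Hill model to give donor-specific PODs: EC05 for beat-rate increase or decrease and for decay-to-rise ratio increase (QT proxy), EC95 for peak-frequency loss (asystole), EC10 for total cell number loss. 0.03 µM is the lower bound.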

1368 = donor line of iPSC-derived cardiomyocytes; assay: as above
Method: as §1

1392 [2] = donor line of iPSC-derived cardiomyocytes; assay: as above
Method: as §1

1516 [3] = donor line of iPSC-derived cardiomyocytes; assay: as above
Method: as §1

1518 [4] = donor line of iPSC-derived cardiomyocytes; assay: as above
Method: as §1

1535 = donor line of iPSC-derived cardiomyocytes; assay: as above
Method: as §1

20084 = donor line of iPSC-derived cardiomyocytes; assay: as above
Method: as §1

30145 [5] = donor line of iPSC-derived cardiomyocytes; assay: as above
Method: as §1

1083 = donor line of iPSC-derived cardiomyocytes; assay: POD (EC10) for decrease in total cell number (cytotoxicity) vs vehicle; higher = less potent (higher point of departure)
Outline: (§2)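 In 384-well plates, cardiomyocytes made from iPSCs of 16 human donors were cultured for 14 days before a 90 min, 37 °C exposure to final concentrations of 0.1, 1, 10 and 100 µM with 0.5% DMSO. Per-field nuclear counts from MetaXpress, normalised to vehicle, were fitted with hierarchical Bayesian Hill models using a 10% decrease. These fits yielded a cytotoxicity point of departure for each donor.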

1118 = donor line of iPSC-derived cardiomyocytes; assay: as above
Outline: as §2

1309 [6] = assay: as above
Outline: as §2

1392 [7] = assay: as above
Outline: as §2

1434 = donor line of iPSC-derived cardiomyocytes; assay: as above
Outline: as §2

1516 [8] = assay: as above
Outline: as §2

1518 [9] = assay: as above
Outline: as §2

1531 = donor line of iPSC-derived cardiomyocytes; assay: as above
Outline: as §2

1565 = donor line of iPSC-derived cardiomyocytes; assay: as above
Outline: as §2

20032 = donor line of iPSC-derived cardiomyocytes; assay: as above
Outline: as §2

30145 [10] = assay: as above
Outline: as §2

30171 = donor line of iPSC-derived cardiomyocytes; assay: as above
Outline: as §2

SMILES	POD vs vehicle 1309 [1] [µM]	POD vs vehicle 1368 [µM]	POD vs vehicle 1392 [2] [µM]	POD vs vehicle 1516 [3] [µM]	POD vs vehicle 1518 [4] [µM]	POD vs vehicle 1535 [µM]	POD vs vehicle 20084 [µM]	POD vs vehicle 30145 [5] [µM]	POD vs vehicle 1083 [µM]	POD vs vehicle 1118 [µM]	POD vs vehicle 1309 [6] [µM]	POD vs vehicle 1392 [7] [µM]	POD vs vehicle 1434 [µM]	POD vs vehicle 1516 [8] [µM]	POD vs vehicle 1518 [9] [µM]	POD vs vehicle 1531 [µM]	POD vs vehicle 1565 [µM]	POD vs vehicle 20032 [µM]	POD vs vehicle 30145 [10] [µM]	POD vs vehicle 30171 [µM]
NC(=O)C(F)(F)C(F)(F)C(F)(F)C(F)F	> 100	> 100	> 100	> 100	> 100	> 100	> 100	> 100	> 100	> 100	> 100	> 100	> 100	> 100	> 100	> 100	> 100	> 100	> 100	0.93
OCC(O)CC(F)(F)C(F)(F)C(F)(F)C(F)(F)C(F)(F)C(F)(F)C(F)(F)C(F)(F)F (stereo not drawn) [1-(Perfluorofluorooctyl)propane-2,3-diol]	> 100	> 100	> 100	> 100	> 100	> 100	> 100	> 100	> 100	> 100	> 100	> 100	> 100	> 100	> 100	> 100	> 100	> 100	> 100	> 100
CC(O)C(F)(F)C(F)(F)F (stereo not drawn) [1-Pentafluoroethylethanol]	> 100	> 100	> 100	> 100	> 100	> 100	> 100	> 100	> 100	> 100	> 100	> 100	> 100	> 100	> 100	> 100	> 100	> 100	> 100	> 100
OCC(F)(F)C(F)(F)C(F)(F)C(F)F [1H,1H,5H-Perfluoropentanol]	> 100	> 100	> 100	> 100	> 100	> 100	> 100	> 100	> 100	> 100	> 100	> 100	> 100	> 100	> 100	> 100	> 100	> 100	> 100	> 100
O=S(=O)(OCC(F)(F)F)C(F)(F)C(F)(F)C(F)(F)C(F)(F)F [2,2,2-Trifluoroethyl_perfluorobutanesulfonate]	> 100	> 100	> 100	> 100	> 100	> 100	> 100	> 100	> 100	> 100	> 100	> 100	> 100	> 100	> 100	> 100	> 100	> 100	> 100	> 100
O=C(O)C(F)(F)C(F)(F)C(F)F [2,2,3,3,4,4-Hexafluorobutanoic_acid]	> 100	> 100	> 100	> 100	> 100	> 100	> 100	> 100	> 100	> 100	> 100	> 100	> 100	> 100	> 100	> 100	> 100	> 100	> 100	0.125
NC(O)(C(F)(F)F)C(F)(F)F [2-Aminohexafluoropropan-2-ol]	> 100	> 100	> 100	> 100	> 100	> 100	> 100	> 100	> 100	> 100	> 100	> 100	> 100	> 100	> 100	> 100	> 100	> 100	> 100	> 100
O=C(O)CCC(F)(F)C(F)(F)C(F)(F)C(F)(F)C(F)(F)F [2H,2H,3H,3H-Perfluorooctanoic_acid]	> 100	> 100	73	75.1	> 100	> 100	66.4	77.8	> 100	> 100	> 100	> 100	> 100	> 100	> 100	> 100	> 100	> 100	> 100	> 100
O=C(O)C=C(C(F)(F)F)C(F)(F)F [3,3-Bis(trifluoromethyl)-2-propenoic_acid]	> 100	> 100	> 100	> 100	> 100	> 100	> 100	> 100	> 100	> 100	> 100	> 100	> 100	> 100	> 100	> 100	> 100	> 100	> 100	> 100
O=C(O)C=CC(F)(C(F)(F)F)C(F)(F)F [3-(Perfluoroisopropyl)-2-propenoic_acid]	> 100	> 100	> 100	> 100	> 100	> 100	> 100	> 100	> 100	> 100	> 100	> 100	> 100	> 100	> 100	> 100	> 100	> 100	> 100	> 100
O=C(O)CCC(F)(F)C(F)(F)C(F)(F)C(F)(F)C(F)(F)C(F)(F)C(F)(F)F [3-Perfluoroheptylpropanoic_acid]	> 100	> 100	> 100	> 100	> 100	> 100	> 100	> 100	> 100	> 100	> 100	> 100	> 100	> 100	> 100	> 100	> 100	> 100	> 100	> 100
O=C(O)CCC(F)(F)C(F)(F)C(F)(F)F [3:3 Fluorotelomer carboxylic acid]	> 100	> 100	> 100	> 100	> 100	> 100	> 100	> 100	> 100	> 100	> 100	> 100	> 100	> 100	> 100	> 100	> 100	> 100	> 100	> 100
O=C(CC(=O)C(F)(F)C(F)(F)F)C(F)(F)F [3H,3H-Perfluoro-2,4-hexanedione]	> 100	> 100	> 100	> 100	> 100	> 100	> 100	> 100	> 100	25.1	> 100	93.5	21.9	74.4	> 100	> 100	> 100	> 100	> 100	> 100
OCCC(F)(F)C(F)(F)C(F)(F)C(F)(F)F [4:2 Fluorotelomer alcohol]	> 100	> 100	> 100	> 100	> 100	> 100	> 100	> 100	> 100	> 100	> 100	> 100	> 100	> 100	> 100	> 100	> 100	> 100	49.9	
O=S(=O)(O)CCC(F)(F)C(F)(F)C(F)(F)C(F)(F)F [4:2 Fluorotelomer sulfonic acid]	> 100	> 100	> 100	> 100	> 100	> 100	> 100	> 100	> 100	> 100	> 100	> 100	> 100	> 100	> 100	> 100	> 100	> 100	> 100	> 100
OCC(F)(F)C(F)(F)C(F)(F)C(F)(F)C(F)(F)C(F)(F)F [6:1 Fluorotelomer alcohol]	> 100	> 100	> 100	> 100	> 100	> 100	> 100	> 100	> 100	1.53	98.6	> 100	13.1			> 100	> 100	> 100	> 100	> 100
OCCC(F)(F)C(F)(F)C(F)(F)C(F)(F)C(F)(F)C(F)(F)F [6:2 Fluorotelomer alcohol]	> 100	> 100	> 100	> 100	> 100	> 100	> 100	> 100	> 100	> 100	> 100	> 100	> 100	> 100	> 100	> 100	> 100	> 100	> 100	> 100
OCC(F)(F)OC(F)(F)C(F)(F)OC(F)(F)C(F)(F)OC(F)(F)F [Fluorinated_triethylene_glycol_monomethyl_ether]	> 100	> 100	> 100	> 100	> 100	> 100	> 100	> 100	> 100	> 100	65.6	2.04		> 100			> 100		> 100	> 100
O=C(O)C(F)(F)C(F)(F)C(F)(F)C(F)(F)C(=O)O [Octafluoroadipic_acid]	> 100	> 100	> 100	> 100	> 100	> 100	> 100	> 100	> 100	> 100	> 100	54.6	23.3	> 100		> 100			> 100	> 100
O=C(O)C(F)(F)C(F)(F)C(F)(F)C(F)(F)C(F)(F)C(F)(F)F [Perfluoroheptanoic_acid]	> 100	> 100	> 100	> 100	> 100	> 100	> 100	> 100	> 100	> 100	> 100	> 100			23.6	> 100	> 100	> 100	> 100	> 100
